Reference: PubChem BioAssay AID1985 (Southern Research Specialized Biocontainment Screening …, 2009)
Values joined by “and” are separate entries in the source; they are usually repeats but may differ in a detail not shown here. Equal values may be shown once.

System: S. Typhi PhoP-promoter GFP reporter, fluorescence, 4 h
Assay: PhoP regulon inhibitor project modified counter assay, GFP fluorescence readout, dose response (AID 1985)

| Structure (SMILES) | IC50 |
| --- | --- |
| O=C(Nc1cccc(C2=NCCN2)c1)Nc1cccc(C2=NCCN2)c1 | 36.2 µM |
| CCN(CC)CCn1c(=N)n(CC(O)COc2cccc(C)c2)c2ccccc21 (stereo not drawn) | 85.2 µM |
| O=C(CC(=O)c1cc(Cl)ccc1O)c1ccccc1 | 128 µM |
| Cc1ccc(C(=O)NCCN2C3=NC[C@@H](Cc4ccccc4)N3C[C@H]2Cc2ccc(O)cc2)cc1Br | 121 µM |
| Cc1cc(Br)ccc1OCCCCNCCO | 61.8 µM |
| CCn1cc(C(=O)O)c(=O)c2ccc(C)nc21 | 76.6 µM |
| CCCOc1ccc(S(=O)(=O)n2cc(F)c(=O)[nH]c2=O)cc1 | 42.2 µM |
| O=C(/C=C/c1ccccc1Cl)c1ccccc(=O)c1O | 37.9 µM |
| C[n+]1c2n(c3ccccc31)N=C(c1ccc(-c3ccccc3)cc1)CS2 | 38 µM |
| c1cnc2c(c1)ccc1cccnc12 | 33.7 µM and 131 µM |
| C/C(=N\NC(=O)c1cccc(Br)c1)c1ccccn1 | 54.4 µM |
| Oc1c(Br)cc(Br)cc1C=NCc1ccccc1 | 49.7 µM |
| Oc1c(I)cc(Cl)c2cccnc12 | 8.07 µM |
| COc1ccc(/C=C/c2cc[n+](C(=O)Cc3ccccc3)cc2)cc1 | 107 µM |
| Clc1ccc(CN2C3=NCCN3c3ccccc32)cc1 | 89.4 µM |
| O=C1C(Cl)=C(NCc2cccnc2)C(=O)c2ccccc21 | 41.6 µM |
| C(=N\Nc1ccccn1)/c1cccnc1 | 37.5 µM |
| CNC(=S)N1CCN(c2c(F)cc3c(=O)c(C(=O)O)cn(C4CC4)c3c2OC)CC1C (stereo not drawn) | 8.49 µM |
| Cc1ccccc1C(=O)N/N=C/c1ccc([N+](=O)[O-])s1 | 29 µM |

| Structure (SMILES) | IC50 |
| --- | --- |
| Cc1cc(C)c2c(N)c3ccccc3nc2n1 | 86 µM |
| CN(C)CCCNc1cc(C(C)(C)C)nc2c(-c3ccc(Cl)cc3)cnn12 | 34.8 µM |
| CN(C)CC/C=C1\c2ccc(F)cc2Sc2cc(F)c(Cl)cc21 | 36.7 µM |
| Nc1nnnn1/N=C/c1cc([N+](=O)[O-])ccc1O | 91.5 µM |
| CCCCCCCCNC(C)C(O)c1ccc(SC(C)C)cc1 (stereo not drawn) | 41.8 µM |
| COC(=O)N/N=C/c1c[n+]([O-])c2ccccc2[n+]1[O-] | 101 µM |
| COc1c(N2CCN(C(=S)Nc3ccccc3F)C(C)C2)c(F)cc2c(=O)c(C(=O)O)cn(C3CC3)c12 (stereo not drawn) | 0.441 µM |
| Nc1nc(Nc2ccc(Cl)cc2)nc2ccccc12 | 33 µM |
| O=C(c1cccs1)c1no[n+]([O-])c1C(=O)c1cccs1 | 14 µM |
| CN(C)CCCN(C(=O)COc1ccccc1)c1nc2ccc(Cl)cc2s1 | 141 µM |
| O=C(Oc1ccccc1)c1cc2ccccc2o1 | 76.2 µM |
| O=C(Nc1csc(Cl)c1)c1ccccc1 | 43.6 µM |
| Clc1ccc(C[n+]2cc(-c3ccc(Cl)cc3)n3c2CCC3)cc1 | 101 µM |
| CCOC(=O)N1CCC(=NNc2ccnc3cc(Cl)ccc23)CC1 | 61.2 µM |
| CCC(C)N1CCC2(CC1)N=c1c(c3c4c5c(C)c(O)c3c(O)c1=NC(=O)C(C)=CC=C[C@H](C)[C@H](O)[C@@H](C)[C@@H](O)[C@@H](C)[C@H](OC(C)=O)[C@H](C)[C@@H](OC)C=CO[C@@](C)(O5)C4=O)N2 (stereo partly drawn) | 9.09 µM |
| Nc1ncncc1-c1ccc([N+](=O)[O-])cc1 | 67.4 µM |
| O=C(c1ccc([N+](=O)[O-])o1)N1CCOCC1 | 24.4 µM |
| COc1cccc(/C=N/NC(=O)CSCC(=O)Nc2ccccc2)c1O | 92.5 µM |
| O=C1CSC(=S)N1c1cccc(O)c1 | 72.8 µM |
